{
  "source": "paper PMC10781884",
  "about": "(Computational and Structural Biotechnology Journal, 2023)",
  "note": "Ends that are not written are not given here.",
  "data": [
    {"system": "Pseudomonas fluorescens", "assay": "Bactericidal activity of MPEG1 peptides, plate count", "type": "cell-based", "conditions": "peptide 20 µM, 4 h", "values": [
      {"sequence": "RRHKSVKRDSRGLT [Nv]", "effect on the propagation of P. fluorescens": "slightly enhance the propagation"},
      {"sequence": "RRNRRRSRSSLSPTTSN [Aj-2]", "effect on the propagation of P. fluorescens": "slightly enhance the propagation"}
    ]},
    {"system": "Micrococcus luteus", "assay": "Minimum inhibitory and minimum bactericidal concentrations", "type": "cell-based", "conditions": "bacterium not named in the method sentence; Fig. 6 uses Micrococcus luteus", "units": {"minimum bactericidal concentrations (MBCs)": "µM"}, "values": [
      {"sequence": "RKWRSKRKQKSKKSSQRYM [Aq-2]", "minimum bactericidal concentrations (MBCs)": 40},
      {"sequence": "VKRRRRLAGFRTVRGY [Sc]", "minimum bactericidal concentrations (MBCs)": 20},
      {"sequence": "KCFLRRRRSRA [Bc]", "minimum bactericidal concentrations (MBCs)": 20},
      {"sequence": "MKRRRKFSHFSFKRGY [Dr-2]", "minimum bactericidal concentrations (MBCs)": 10}
    ]}
  ]
}
